# How the values were obtained:
# [1] = target: T1, rat α3β4 nicotinic acetylcholine receptor (nAChR) (Rattus norvegicus, UniProt P04757+P12392); assay: cell-based
# T1 construct: expressed in transfected cells; host or cells: HEK 293 (ATCC CRL1573), transient, Lipofectamine 2000
# Sprague Dawley rats = assay: Modified Irwin test, pilot dose finding study, female rats; assay type: in vivo, rat; conditions: single oral dose 30-800 mg/kg
# Protocol: Under the conditions of this study, the no-observed-effect level (NOEL) and no-observed-adverse-effect level (NOAEL) were considered to be 90 mg/kg and 400 mg/kg, respectively.
# cynomolgus monkeys = assay: 14-day nasogastric gavage GLP toxicity study in cynomolgus monkeys; assay type: in vivo, cynomolgus monkey; conditions: for Bone marrow, femur: Depletion, mixed; number with observation / Liver: Hypertrophy, hepatocellular, panlobular; number with observation / Thymus: Depletion, lymphoid, cortex; number with observation: 3 examined
# Description: Assessments of neurobehavioral effects and general toxicity were based on mortality, functional observational battery (FOB) evaluations, clinical observations, body weight, and body temperature; ophthalmoscopic, electrocardiographic examinations; and anatomic and clinical pathology. The anatomical pathology evaluations included histopathology of a full list of tissues from all animals and a comprehensive evaluation of the central nervous system (including selected peripheral nerves) utilizing whole body perfusion and special stains. Bone marrow smears from all animals were evaluated microscopically. Complete differentials and myeloid-erythroid (ME) ratios were performed. Toxicokinetic assessment was conducted for the test article and metabolites.
# T1 sequence (P04757 26-499): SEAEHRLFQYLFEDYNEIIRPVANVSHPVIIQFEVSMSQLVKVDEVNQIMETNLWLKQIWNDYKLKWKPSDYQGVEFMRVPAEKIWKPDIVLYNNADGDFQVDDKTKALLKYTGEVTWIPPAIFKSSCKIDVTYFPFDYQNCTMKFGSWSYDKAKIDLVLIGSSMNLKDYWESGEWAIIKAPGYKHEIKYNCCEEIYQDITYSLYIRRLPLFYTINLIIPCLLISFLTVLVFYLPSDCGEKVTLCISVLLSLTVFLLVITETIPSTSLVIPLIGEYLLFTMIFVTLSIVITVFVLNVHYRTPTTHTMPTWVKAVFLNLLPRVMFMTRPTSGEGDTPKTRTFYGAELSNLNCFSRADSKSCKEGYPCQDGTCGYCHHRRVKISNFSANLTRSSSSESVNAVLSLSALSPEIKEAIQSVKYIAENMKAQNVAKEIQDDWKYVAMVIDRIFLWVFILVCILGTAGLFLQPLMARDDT
# T1 sequence (P12392 21-495): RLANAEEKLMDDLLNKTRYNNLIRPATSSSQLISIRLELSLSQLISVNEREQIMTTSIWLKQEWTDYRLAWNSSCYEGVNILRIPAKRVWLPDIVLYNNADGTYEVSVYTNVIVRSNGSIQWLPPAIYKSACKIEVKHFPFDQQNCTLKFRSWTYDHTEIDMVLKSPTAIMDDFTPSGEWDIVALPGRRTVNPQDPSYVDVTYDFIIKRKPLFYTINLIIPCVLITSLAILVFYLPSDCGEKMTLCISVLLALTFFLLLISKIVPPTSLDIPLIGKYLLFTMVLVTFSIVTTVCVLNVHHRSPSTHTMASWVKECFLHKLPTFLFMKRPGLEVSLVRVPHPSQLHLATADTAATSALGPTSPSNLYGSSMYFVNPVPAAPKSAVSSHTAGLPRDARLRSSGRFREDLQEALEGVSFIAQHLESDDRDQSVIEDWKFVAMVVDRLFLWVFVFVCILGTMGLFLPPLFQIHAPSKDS
smiles,measurement,setting,value
"COCCC1CC2CN3CCc4c([nH]c5ccccc45)C(C(=O)OC)(C2)C13.Cl (stereo not drawn) [18-MC HCl, 18-Methoxycoronaridine hydrochloride]",Max Inhibition 20-30 μM,[1],98 ± 1%
same,Persistent Inhibition at 1 sec,[1],88 ± 3%
same,no-observed-adverse-effect level (NOAEL),Sprague Dawley rats,400 mg/kg
same,no-observed-effect level (NOEL),Sprague Dawley rats,90 mg/kg
same,HED of well tolerated dose,cynomolgus monkeys; 50 mg/kg/day,16 mg/kg/day
same,"Bone marrow, femur: Depletion, mixed, mild; number with observation",cynomolgus monkeys; 50 mg/kg/day F,0
same,"Bone marrow, femur: Depletion, mixed, minimal; number with observation",cynomolgus monkeys; 50 mg/kg/day F,0
same,"Bone marrow, femur: Depletion, mixed, moderate; number with observation",cynomolgus monkeys; 50 mg/kg/day F,0
same,"Bone marrow, rib: Depletion, mixed, mild; number with observation",cynomolgus monkeys; 50 mg/kg/day F,0
same,"Bone marrow, rib: Depletion, mixed, minimal; number with observation",cynomolgus monkeys; 50 mg/kg/day F,0
same,"Bone marrow, rib: Depletion, mixed, moderate; number with observation",cynomolgus monkeys; 50 mg/kg/day F,0
same,"Bone marrow, rib: Depletion, mixed; number with observation",cynomolgus monkeys; 50 mg/kg/day F,0
same,"Bone marrow, sternum: Depletion, mixed, mild; number with observation",cynomolgus monkeys; 50 mg/kg/day F,0
same,"Bone marrow, sternum: Depletion, mixed, minimal; number with observation",cynomolgus monkeys; 50 mg/kg/day F,0
same,"Bone marrow, sternum: Depletion, mixed, moderate; number with observation",cynomolgus monkeys; 50 mg/kg/day F,0
same,"Bone marrow, sternum: Depletion, mixed; number with observation",cynomolgus monkeys; 50 mg/kg/day F,0
same,"Liver: Hypertrophy, hepatocellular, panlobular, mild; number with observation",cynomolgus monkeys; 50 mg/kg/day F,3
same,"Liver: Hypertrophy, hepatocellular, panlobular, minimal; number with observation",cynomolgus monkeys; 50 mg/kg/day F,0
same,"Thymus: Depletion lymphoid, generalized, mild; number with observation",cynomolgus monkeys; 50 mg/kg/day F,1
same,"Thymus: Depletion lymphoid, generalized, moderate; number with observation",cynomolgus monkeys; 50 mg/kg/day F,0
same,"Thymus: Depletion lymphoid, generalized; number with observation",cynomolgus monkeys; 50 mg/kg/day F,1
same,"Thymus: Depletion, lymphoid, cortex, mild; number with observation",cynomolgus monkeys; 50 mg/kg/day F,0
same,"Thymus: Depletion, lymphoid, cortex, minimal; number with observation",cynomolgus monkeys; 50 mg/kg/day F,2
same,"Thymus: Depletion, lymphoid, cortex, moderate; number with observation",cynomolgus monkeys; 50 mg/kg/day F,0
same,mean cumulative body gain (Days 1-14),cynomolgus monkeys; 50 mg/kg/day F,-0.08 kg
same,"Bone marrow, femur: Depletion, mixed; number with observation",cynomolgus monkeys; 50 mg/kg/day F,0
same,"Liver: Hypertrophy, hepatocellular, panlobular; number with observation",cynomolgus monkeys; 50 mg/kg/day F,3
same,"Thymus: Depletion, lymphoid, cortex; number with observation",cynomolgus monkeys; 50 mg/kg/day F,2
same,"Bone marrow, femur: Depletion, mixed, mild; number with observation",cynomolgus monkeys; 50 mg/kg/day M,0
same,"Bone marrow, femur: Depletion, mixed, minimal; number with observation",cynomolgus monkeys; 50 mg/kg/day M,0
same,"Bone marrow, femur: Depletion, mixed, moderate; number with observation",cynomolgus monkeys; 50 mg/kg/day M,0
same,"Bone marrow, rib: Depletion, mixed, mild; number with observation",cynomolgus monkeys; 50 mg/kg/day M,0
same,"Bone marrow, rib: Depletion, mixed, minimal; number with observation",cynomolgus monkeys; 50 mg/kg/day M,0
same,"Bone marrow, rib: Depletion, mixed, moderate; number with observation",cynomolgus monkeys; 50 mg/kg/day M,0
same,"Bone marrow, rib: Depletion, mixed; number with observation",cynomolgus monkeys; 50 mg/kg/day M,0
same,"Bone marrow, sternum: Depletion, mixed, mild; number with observation",cynomolgus monkeys; 50 mg/kg/day M,0
same,"Bone marrow, sternum: Depletion, mixed, minimal; number with observation",cynomolgus monkeys; 50 mg/kg/day M,0
same,"Bone marrow, sternum: Depletion, mixed, moderate; number with observation",cynomolgus monkeys; 50 mg/kg/day M,0
same,"Bone marrow, sternum: Depletion, mixed; number with observation",cynomolgus monkeys; 50 mg/kg/day M,0
same,"Liver: Hypertrophy, hepatocellular, panlobular, mild; number with observation",cynomolgus monkeys; 50 mg/kg/day M,0
same,"Liver: Hypertrophy, hepatocellular, panlobular, minimal; number with observation",cynomolgus monkeys; 50 mg/kg/day M,0
same,"Thymus: Depletion lymphoid, generalized, mild; number with observation",cynomolgus monkeys; 50 mg/kg/day M,0
same,"Thymus: Depletion lymphoid, generalized, moderate; number with observation",cynomolgus monkeys; 50 mg/kg/day M,0
same,"Thymus: Depletion lymphoid, generalized; number with observation",cynomolgus monkeys; 50 mg/kg/day M,0
same,"Thymus: Depletion, lymphoid, cortex, mild; number with observation",cynomolgus monkeys; 50 mg/kg/day M,0
same,"Thymus: Depletion, lymphoid, cortex, minimal; number with observation",cynomolgus monkeys; 50 mg/kg/day M,2
same,"Thymus: Depletion, lymphoid, cortex, moderate; number with observation",cynomolgus monkeys; 50 mg/kg/day M,0
same,mean cumulative body gain (Days 1-14),cynomolgus monkeys; 50 mg/kg/day M,-0.22 kg
same,"Bone marrow, femur: Depletion, mixed; number with observation",cynomolgus monkeys; 50 mg/kg/day M,0
same,"Liver: Hypertrophy, hepatocellular, panlobular; number with observation",cynomolgus monkeys; 50 mg/kg/day M,0
same,"Thymus: Depletion, lymphoid, cortex; number with observation",cynomolgus monkeys; 50 mg/kg/day M,2
same,"Bone marrow, femur: Depletion, mixed, mild; number with observation",cynomolgus monkeys; 150 mg/kg/day F,0
same,"Bone marrow, femur: Depletion, mixed, minimal; number with observation",cynomolgus monkeys; 150 mg/kg/day F,0
same,"Bone marrow, femur: Depletion, mixed, moderate; number with observation",cynomolgus monkeys; 150 mg/kg/day F,0
same,"Bone marrow, rib: Depletion, mixed, mild; number with observation",cynomolgus monkeys; 150 mg/kg/day F,0
same,"Bone marrow, rib: Depletion, mixed, minimal; number with observation",cynomolgus monkeys; 150 mg/kg/day F,0
same,"Bone marrow, rib: Depletion, mixed, moderate; number with observation",cynomolgus monkeys; 150 mg/kg/day F,0
same,"Bone marrow, rib: Depletion, mixed; number with observation",cynomolgus monkeys; 150 mg/kg/day F,0
same,"Bone marrow, sternum: Depletion, mixed, mild; number with observation",cynomolgus monkeys; 150 mg/kg/day F,0
same,"Bone marrow, sternum: Depletion, mixed, minimal; number with observation",cynomolgus monkeys; 150 mg/kg/day F,0
same,"Bone marrow, sternum: Depletion, mixed, moderate; number with observation",cynomolgus monkeys; 150 mg/kg/day F,0
same,"Bone marrow, sternum: Depletion, mixed; number with observation",cynomolgus monkeys; 150 mg/kg/day F,0
same,"Liver: Hypertrophy, hepatocellular, panlobular, mild; number with observation",cynomolgus monkeys; 150 mg/kg/day F,2
same,"Liver: Hypertrophy, hepatocellular, panlobular, minimal; number with observation",cynomolgus monkeys; 150 mg/kg/day F,1
same,"Thymus: Depletion lymphoid, generalized, mild; number with observation",cynomolgus monkeys; 150 mg/kg/day F,0
same,"Thymus: Depletion lymphoid, generalized, moderate; number with observation",cynomolgus monkeys; 150 mg/kg/day F,0
same,"Thymus: Depletion lymphoid, generalized; number with observation",cynomolgus monkeys; 150 mg/kg/day F,0
same,"Thymus: Depletion, lymphoid, cortex, mild; number with observation",cynomolgus monkeys; 150 mg/kg/day F,2
same,"Thymus: Depletion, lymphoid, cortex, minimal; number with observation",cynomolgus monkeys; 150 mg/kg/day F,0
same,"Thymus: Depletion, lymphoid, cortex, moderate; number with observation",cynomolgus monkeys; 150 mg/kg/day F,1
same,mean cumulative body gain (Days 1-14),cynomolgus monkeys; 150 mg/kg/day F,-0.12 kg
same,"Bone marrow, femur: Depletion, mixed; number with observation",cynomolgus monkeys; 150 mg/kg/day F,0
same,"Liver: Hypertrophy, hepatocellular, panlobular; number with observation",cynomolgus monkeys; 150 mg/kg/day F,3
same,"Thymus: Depletion, lymphoid, cortex; number with observation",cynomolgus monkeys; 150 mg/kg/day F,3
same,"Bone marrow, femur: Depletion, mixed, mild; number with observation",cynomolgus monkeys; 150 mg/kg/day M,0

# From patent US20230201217A1 (priority 2019, published 2023)
